# Experimental data taken from US11458188B2, “ABC transporter peptide inhibitor XH-14C and application thereof” (HUNAN UNIVERSITY OF SCIENCE AND ENGINEERING, priority 2020, dated 2022).
# Where two headings read alike, the source gives them in different places.
# Legend:
# [1] = tested on: transfected ABCB1-overexpressing cell line HEK293/ABCB1; assay: MDR reversal study (MTT), transfected ABCB1-overexpressing cell line; conditions: Table 4, IC50 divided by IC50 in HEK293/pcDNA3.1
# Protocol: (§1) The cytotoxicity of the peptide in different cell lines was measured by modified MTT assay. 5,000 cells per well were seeded in a 96-well microplate and cultured overnight. Peptides and positive control were added in a designated concentration gradient. The plate was incubated for 68 h, and then added with 20 μL of MTT solution (4 mg/mL) per well and incubated for another 4 h. The medium was pipetted, to which 100 μL of DMSO was added to dissolve the formaldehyde crystals. The absorbance was measured at 570 nm with a UV/Vis microplate spectrophotometer.
# [2] = tested on: transfected empty vector cell line HEK293/pcDNA3.1; assay: MDR reversal study (MTT), transfected empty vector cell line; format: cell-based; conditions: for IC50: read-out: IC50, chemotherapeutic alone
# Protocol: as §1
# [3] = tested on: drug-induced ABCB1-overexpressing cancer cell line KB-C2; assay: MDR reversal study (MTT), drug-induced ABCB1-overexpressing cell line; conditions: Table 3, IC50 divided by IC50 in KB-3-1
# Protocol: as §1
# [4] = tested on: parental cancer cell line KB-3-1; assay: MDR reversal study (MTT), parental cancer cell line; format: cell-based; conditions: for IC50: read-out: IC50, chemotherapeutic alone
# Protocol: as §1
# [5] = tested on: drug-induced ABCC1-overexpressing cancer cell line KB-CV60; assay: MDR reversal study (MTT), drug-induced ABCC1-overexpressing cell line; format: cell-based; conditions: for IC50: Table 5, no reversal agent, read-out: IC50, chemotherapeutic alone
# [6] = tested on: transfected ABCC1-overexpressing cell line HEK293/ABCC1; assay: MDR reversal study (MTT), transfected ABCC1-overexpressing cell line; format: cell-based; conditions: for IC50: Table 6, no reversal agent, read-out: IC50, chemotherapeutic alone
# [7] = tested on: parental cells (KB-3-1); assay: Modified MTT cytotoxicity assay, parental cells; conditions: Homo sapiens, KB 3-1, 72 h, read-out: IC50 (cytotoxicity), KB-3-1
# [8] = tested on: ABCB1-overexpressing cancer cells (KB-C2); assay: Modified MTT cytotoxicity assay, ABCB1-overexpressing cells; conditions: Homo sapiens, KB-C2, 72 h, read-out: IC50 (cytotoxicity), KB-C2
# Protocol: as §1
# [9] = tested on: ABCC1-overexpressing cancer cells (KB-CV60); assay: Modified MTT cytotoxicity assay, ABCC1-overexpressing cells; conditions: KB-CV60, 72 h, read-out: IC50 (cytotoxicity), KB-CV60
smiles,measurement,setting,value
COc1cccc2c1C(=O)c1c(O)c3c(c(O)c1C2=O)C[C@@](O)(C(=O)CO)C[C@@H]3O[C@H]1C[C@H](N)[C@H](O)[C@H](C)O1 [Adriamycin],"RF (resistance fold), chemotherapeutic alone",[1],25.29
same,"RF (resistance fold), chemotherapeutic alone","[2]; Table 4, no reversal agent",1.00
same,"RF (resistant fold), chemotherapeutic alone",[3],58.84
same,"RF (resistant fold), chemotherapeutic alone","[4]; Table 3, no reversal agent",1.00
N.N.[Cl][Pt][Cl] [Cisplatin],IC50,"[2]; Table 4, no reversal agent",2210 nM
same,IC50,"[2]; Table 6, no reversal agent",2210 nM
same,IC50,[5],2.23 µM
same,IC50,"[4]; Table 3, no reversal agent",1790 nM
same,IC50,"[4]; Table 5, no reversal agent",1790 nM
same,IC50,[6],2240 nM
CN(C)C(=O)CCSC(SCCC(=O)O)c1cccc(/C=C/c2ccc3ccc(Cl)cc3n2)c1 (centres unmarked) [MK571],RF of Cisplatin + MK571,"[2]; Table 6, MK571 5 μM",0.99
same,RF of Vincristine + MK571,"[2]; Table 6, MK571 5 μM",1.02
CC(=O)O[C@H]1C(=O)[C@@]2(C)[C@H]([C@H](OC(=O)c3ccccc3)[C@]3(O)C[C@H](OC(=O)[C@H](O)[C@@H](NC(=O)c4ccccc4)c4ccccc4)C(C)=C1C3(C)C)[C@]1(OC(C)=O)CO[C@@H]1C[C@@H]2O [Paclitaxel],IC50,[7],30 nM
same,"RF (resistant fold), chemotherapeutic alone","[4]; Table 3, no reversal agent",1.00
same,IC50,[8],1770 nM
CC[C@]1(O)C[C@H]2CN(CCc3c([nH]c4ccccc34)[C@@](C(=O)OC)(c3cc4c(cc3OC)N(C=O)[C@H]3[C@@](O)(C(=O)OC)[C@H](OC(C)=O)[C@]5(CC)C=CCN6CC[C@]43[C@@H]65)C2)C1 [Vincristine],"RF (resistance fold), chemotherapeutic alone","[2]; Table 6, no reversal agent",1.00
same,IC50,[7],95 nM
same,"RF (resistance fold), chemotherapeutic alone","[5]; Table 5, IC50 divided by IC50 in KB-3-1",169.05
same,IC50,[5],16.1 µM
same,"RF (resistance fold), chemotherapeutic alone","[4]; Table 5, no reversal agent",1.00
same,IC50,[9],16.1 µM
same,"RF (resistance fold), chemotherapeutic alone","[6]; Table 6, IC50 divided by IC50 in HEK293/pcDNA3.1",19.79
same,IC50,[6],2710 nM
